SMILES	melting point
CCCn1c(CCCc2ccc(OC(C)(C)C(=O)O)cc2)nn(Cc2ccc(C)cc2)c1=O	94 to 96.5 °C
CCCn1c(CCCc2ccc(OC)cc2)nn(Cc2ccc(C)cc2)c1=O [Example 118, 5-[3-(4-Methoxyphenyl)-propyl]-2-(4-methylbenzyl)-4-propyl-2,4-dihydro[1,2,4]tria-zol-3-one]	86.5 to 88.2 °C

— US7304062B2, “Peroxisome proliferator activated receptor alpha agonists” (Eli Lilly and Company, priority 2000, dated 2007)
